Reference: patent US12344620B2, “BRD4 inhibitor compound in solid form and preparation method therefor and use thereof” (CSPC ZHONGQI PHARMACEUTICAL TECHNOLOGY (SHIJIAZHUANG) CO., …, priority 2019, dated 2025)

Legend:
[1] = system: Human breast cancer MDA-MB-231_luc cells; test: In vivo pharmacodynamics, MDA-MB-231_luc subcutaneous xenograft tumor model; settings: 50 mg/kg PO BID x 21 days
Protocol: • Species: mouse • Strain: BALB/c nude mouse • Week-age and weight: 6-8 weeks of age, 18-22 grams of body weight • Sex: Female • Supplier: Shanghai Sippr-BK laboratory animal Co. Ltd.
Human breast cancer MDA-MB-231_luc cells were cultured in monolayer in vitro and the culture conditions were RPMI-1640 culture medium (supplier: Gibco; article number: 22400-089; manufacturing batch number: 4868546) with 10% fetal bovine serum, 100 U/ml penicillin and 100 μg/mL streptomycin. The culture was performed at 37° C. in 5% CO2. Conventional digestion treatment with pancreatin-EDTA for passage was carried out twice a week. When the cells were in the exponential growth phase, the cells were harvested, counted, and inoculated. […]
The experiment index was to investigate whether tumor growth was inhibited, delayed or cured. Tumor diameter was measured twice a week with vernier calipers. […]
The tumor inhibition effect of the compound was evaluated by TGI (%) or relative tumor proliferation rate T/C (%). […]
Relative tumor proliferation rate T/C (%) was calculated according to the below equation: T/C %=TRTV/CRTV×100% (TRTV: RTV of the treatment group; CRTV: RTV of the negative control group). The relative tumor volume (RTV) was calculated according to the results of the tumor measurement. […]

[2] = In vivo pharmacokinetics test in mice; settings: mouse, plasma, po; female Balb/c mice, intragastric, 3 mg/kg; read-out: Bioavailability F
Protocol: Female Balb/c mice were used as test animals. The compound of formula (I) was administrated intravenously and intragastrically to mice, then the drug concentrations in the plasma at different time points were determined by the LC/MS/MS method. The in vivo pharmacokinetic behavior of the compound of formula (I) in mice was studied, and its pharmacokinetic characteristics were evaluated.
Sixteen healthy adult female Balb/c mice were divided into four groups according to the principle of similar body weight, with four mice in each group. The animals were purchased from Shanghai Lingchang BioTech Co., Ltd. of Shanghai SLAC Laboratory Animal Co., Ltd., and the animal production license number was SCXK (Shanghai) 2013-0018.
An appropriate amount of the sample was taken, 5% final volume of DMSO was added, and then 95% final volume of 20% HP-β-CD was added. The mixture was ultrasonically stirred to obtain a 0.5 mg/mL clear solution. After filtration, it was used for the intravenous administration. […]
The LC/MS/MS method was used to measure the content of the compound to be tested in the plasma after the intravenous and intragastric administration to the mice. The linear range of the method was 2.00-6000 nmol/L; the plasma samples were analyzed after the protein precipitation by acetonitrile treatment.

[3] = biological target: hERG potassium ion channel (Homo sapiens (Human), UniProt Q12809); test: hERG potassium channel current, automatic patch-clamp QPatch, CHO-hERG cells; type: cell-based; settings: highest test concentration 40 μM
Sequence of hERG potassium ion channel (Q12809 whole entry): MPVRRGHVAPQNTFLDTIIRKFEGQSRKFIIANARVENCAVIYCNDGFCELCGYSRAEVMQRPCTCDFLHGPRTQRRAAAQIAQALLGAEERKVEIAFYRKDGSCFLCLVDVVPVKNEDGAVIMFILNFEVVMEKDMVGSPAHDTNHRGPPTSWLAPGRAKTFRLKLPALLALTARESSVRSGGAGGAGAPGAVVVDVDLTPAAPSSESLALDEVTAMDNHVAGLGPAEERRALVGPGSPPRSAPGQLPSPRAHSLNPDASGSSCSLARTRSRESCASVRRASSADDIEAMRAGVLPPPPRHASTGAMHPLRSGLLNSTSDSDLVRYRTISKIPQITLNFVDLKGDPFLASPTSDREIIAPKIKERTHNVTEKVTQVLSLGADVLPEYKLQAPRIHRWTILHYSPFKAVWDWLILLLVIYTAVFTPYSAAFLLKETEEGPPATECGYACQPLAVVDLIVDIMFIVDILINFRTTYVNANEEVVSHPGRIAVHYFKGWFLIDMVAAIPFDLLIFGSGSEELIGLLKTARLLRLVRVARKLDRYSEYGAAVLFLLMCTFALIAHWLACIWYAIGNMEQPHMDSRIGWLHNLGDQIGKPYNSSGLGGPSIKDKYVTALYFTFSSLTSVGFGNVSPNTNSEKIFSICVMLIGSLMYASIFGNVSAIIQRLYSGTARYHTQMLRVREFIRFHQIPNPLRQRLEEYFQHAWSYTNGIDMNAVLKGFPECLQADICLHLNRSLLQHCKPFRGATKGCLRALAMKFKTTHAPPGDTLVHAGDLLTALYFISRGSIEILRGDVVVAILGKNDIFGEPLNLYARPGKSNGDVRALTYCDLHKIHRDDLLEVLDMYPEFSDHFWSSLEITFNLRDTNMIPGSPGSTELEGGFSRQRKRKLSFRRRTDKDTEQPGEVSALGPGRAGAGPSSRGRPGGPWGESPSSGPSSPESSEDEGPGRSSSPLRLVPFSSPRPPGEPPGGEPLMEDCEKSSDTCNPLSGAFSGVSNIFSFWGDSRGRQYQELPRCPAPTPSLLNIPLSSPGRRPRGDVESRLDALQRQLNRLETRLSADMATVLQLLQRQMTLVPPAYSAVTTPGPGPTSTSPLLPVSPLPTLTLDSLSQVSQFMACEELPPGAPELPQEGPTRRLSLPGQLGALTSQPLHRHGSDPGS
Protocol: The effect of the compound of formula (I) on the hERG potassium channel current was investigated by adopting CHO (Chinese Hamster ovary) cell stably expressing the hERG potassium ion channel and using the fully automatic patch-clamp QPatch technology.
CHO-hERG cells were cultured in a 175 cm^2 culture flask. After the cell density increased to 60-80%, the culture medium was removed, the cells were washed once with 7 mL PBS, and then 3 mL Detachin was added for digestion.
After the digestion was complete, 7 mL of culture medium was added for neutralization, and then the mixture was centrifuged. The supernatant was removed, and then 5 mL of culture medium was added for resuspension to ensure that the cell density was 2-5×10^6/mL. […]
The single-cell high-impedance sealing and the whole-cell mode formation process were all automatically completed by the Qpatch instrument. […] The data were recorded for 2 minutes, then extracellular fluid was given, and then the data were recorded for 5 minutes. […] The experimental data were analyzed by XLFit software.

With Cc1sc2c(c1C)C(c1ccc(Cl)cc1)=N[C@@H](CC(=O)Nc1ccc3c(c1)COC3=O)c1nnc(C)n1-2 [Compound of formula (I)] the “change in body weight of the animals” value [1] was “no significant change”, the tolerability [1] was “well tolerated” and the bioavailability [2] was 37.5%. The IC50 [3] was > 40 µM.
